According to BindingDB's records for patent US12534451 (St. Jude Children''s Research Hospital, Inc., 2026):

Target: Pantothenate kinase 3 (Homo sapiens, UniProt Q9H999)
Assay: PANK Activity Assay
Protocol: All the experiments were repeated twice in duplicate and the data were an average ±data range. […] The experiments mimicking the mixture of ligands present in vivo were performed under different conditions.

Sequence of Pantothenate kinase 3 (Q9H999 whole entry): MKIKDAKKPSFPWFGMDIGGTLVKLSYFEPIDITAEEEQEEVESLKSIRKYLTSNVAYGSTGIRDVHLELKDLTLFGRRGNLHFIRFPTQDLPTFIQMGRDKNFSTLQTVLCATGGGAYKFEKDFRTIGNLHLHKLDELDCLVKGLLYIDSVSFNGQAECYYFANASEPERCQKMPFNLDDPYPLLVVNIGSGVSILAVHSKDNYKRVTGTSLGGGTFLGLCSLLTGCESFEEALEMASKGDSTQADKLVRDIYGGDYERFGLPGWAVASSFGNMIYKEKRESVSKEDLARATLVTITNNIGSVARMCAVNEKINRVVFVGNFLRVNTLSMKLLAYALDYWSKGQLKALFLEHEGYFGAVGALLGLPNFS

IC50: 1.23 nM
SMILES: O=C(Cc1ccc(C2CC2)c(F)c1)N1CCN(c2nc3ncc(F)cc3o2)CC1 [US12534451, Compound PZ-4351]
